Results as given in patent publication US10857105B2, “Compounds and compositions for intracellular delivery of therapeutic agents” (ModernaTX, Inc., priority 2017, dated 2020).

Experiments:
[1] = Metabolite identification of Compound 18 incubated with human plasma; assay type: in vitro ADME; parameters: key to Detection at 0 min / Detection at 30 min / Detection at 60 min / Detection at 90 min: +: Detected; ND: Not detected; conditions: Compound 18 (10 μM), human plasma
Protocol: Metabolite Identification: Compound 18 (10 μM) was incubated with human plasma (29.0 mg protein/incubation) in incubation mixtures (200 μL final incubation volume) that consisted of 50/50 v/v neat plasma (undiluted)/substrate solution in 50 mM phosphate buffer, pH 7.4). The plasma was obtained from male and female donors and contained K2EDTA anticoagulant. Reactions were started by addition of the substrate solution to human plasma and were stopped at four designated time points (0, 30, 60 and 90 min) by the addition of 600 μL of stop reagent (acetonitrile). Stopped incubation samples were centrifuged (e.g., 10,000×g for 10 min at 10° C.) and the supernatant fractions were analyzed by LC-MS/MS to characterize the metabolites formed from compound 18. Additional incubations were performed with the positive control procaine […] to establish competency of the test system. Samples were analyzed by LC-MS/MS.
(§1) In vitro metabolite identification studies using compound 18 were also performed. […] The disappearance of parent compound 18 and the primary metabolite, compound 166, from mouse liver tissue was measured after dosing 0.25 mg/kg mRNA on days 1, 8, and 15.

mouse liver tissue = experiment: Disappearance of parent lipid and primary metabolite from mouse liver after 0.25 mg/kg mRNA on days 1, 8 and 15; assay type: in vivo
Protocol: as §1

human hepatocytes = experiment: Metabolite profiling of Compound 18 incubated with human hepatocytes; assay type: in vitro ADME; parameters: key: +: Detected; ND: Not detected; conditions: Compound 18 (10 μM), human hepatocytes
Protocol: as §1
The results of metabolic profiling and characterization for compound 18 incubated with human hepatocytes or human plasma are summarized in Tables 41 and 42, respectively.

hEPO mRNA = experiment: Pretreatment study (methotrexate or dexamethasone) with MC3 formulation in Cynomolgus monkeys; assay type: in vivo; conditions: MC3 formulation with hEPO mRNA, once weekly for four weeks
Text: In order to combat negative effects, nanoparticle compositions are co-administered with one or more substances (e.g., co-medications or additional therapeutic and/or prophylactics) to subjects. Potentially useful additional therapeutic and/or prophylactics include steroids (e.g., corticosteroids), anti-histamines, H1 receptor blockers, H2 receptor blockers, anti-inflammatory compounds, statins, BTK inhibitors, S1P1 agonists, glucocorticoid receptor modulators (GRMs), and estradiols. Non-human primates are pretreated with one or more additional therapeutic agents selected from dexamethasone and acetaminophen. The additional therapeutic agent is administered either 24 hours, 1 hour, or both 24 hours and 1 hour before administration of a nanoparticle composition. Cytokine profiles, inflammation, and other parameters are measured and compared to evaluate the effectiveness of pretreatment
The effects of pretreatment to non-human primates were evaluated using a standard MC3 formulation including an mRNA encoding hEPO. Male monkeys were administered the nanoparticle composition once weekly for four weeks at a dose rate of 5 ml/kg/h and were pretreated with either methotrexate or dexamethasone.
As shown, in the absence of any pretreatment, maximal expression levels decreased nearly 70% over the course of the study.

Structure (SMILES): CCCCCCCCC(CCCCCCCC)OC(=O)CCCCCCCN(CCO)CCCCCCCC(=O)O [Compound 166, 8-((8-(Heptadecan-9-yloxy)-8-oxooctyl)(2-hydroxyethyl)amino)octanoic acid]
- Detection at 30 min ([1]; 30 min): +
- Detection at 60 min ([1]; 60 min): +
- Detection at 90 min ([1]; 90 min): +
- clearance from mouse liver tissue (mouse liver tissue): rapid clearance
- Detection at 60 min (human hepatocytes; 60 min): +
- Detection at 120 min (human hepatocytes; 120 min): +
- Detection at 240 min (human hepatocytes; 240 min): +

Structure (SMILES): CN(Cc1cnc2nc(N)nc(N)c2n1)c1ccc(C(=O)N[C@@H](CCC(=O)O)C(=O)O)cc1 [Methotrexate, methotrexate]
- Effect of pretreatment on protein expression (hEPO mRNA): did not confer any particular beneficial effect
